For assay [1], the system named is Human platelet aggregation caused by ADP. Briefly: Inhibition of ADP-induced platelet aggregation (Mimic-human PRP). The assay is classed as cell-based. The conditions noted are these: 20 μM ADP, human platelet concentrate diluted with PPP, absorption at 595 nm. In short, it runs like this:
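Ki came from non-linear sigmoidal fits of inhibition, measured as the 3-min rise in absorbance at 595 nm after 20 μM ADP, relative to 0/20 μM ADP controls. Platelets (3–4×10^8/mL in PPP-diluted human PRP) were exposed to 0.01–30 μM compound for 20 min at room temperature beforehand.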

The target of another assay is T1, Human P2Y12 receptor (Homo sapiens, UniProt Q9H244).
T1 construct: expressed in transfected cells; host or cells: HEK cells
Briefly: Human P2Y12 receptor cell membrane binding assay with [3H] 2-Mes-ADP. The conditions noted are these: 1 nM [3H] 2-Mes-ADP, membranes of HEK cells expressing P2Y12 receptor; read-out: Binding activity (IC50). In short, it runs like this:
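Competition binding used 1 nM [3H]2-MeS-ADP on P2Y12-expressing HEK cell membranes for 1 h at room temperature, followed by filtration and scintillation counting.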

A value given as a limit tells only on which side of the number the result lay.

T1 sequence (Q9H244 whole entry): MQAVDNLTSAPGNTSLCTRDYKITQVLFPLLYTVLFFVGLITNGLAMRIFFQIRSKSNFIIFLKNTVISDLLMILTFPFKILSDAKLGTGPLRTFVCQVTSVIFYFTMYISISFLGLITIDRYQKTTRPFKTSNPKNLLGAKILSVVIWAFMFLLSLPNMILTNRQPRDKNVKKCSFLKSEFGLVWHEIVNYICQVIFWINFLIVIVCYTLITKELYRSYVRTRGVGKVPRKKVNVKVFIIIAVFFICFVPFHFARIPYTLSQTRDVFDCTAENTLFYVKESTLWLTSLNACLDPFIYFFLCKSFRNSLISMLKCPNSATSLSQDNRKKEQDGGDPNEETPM

Turning to `CCCc1cc2c(N3CCn4c(nnc4C(F)(F)F)C3)nc(COc3ccccc3C(=O)OC)nc2s1` [Example 4-24, 2-[6-Propyl-4-(3-trifluoromethyl-5,6-dihydro-8H-[1,2,4]triazolo[4,3-a]pyrazin-7-yl)thieno[2,3-d]pyrimidin-2-ylmethoxy]benzoic acid methyl ester], the Ki in assay [1] turned out to be 8100 nM. For the same molecule, the IC50 at Human P2Y12 receptor was determined as 700 nM.
Turning to `CCCc1cc2c(N3CCn4c(nnc4C(F)(F)F)C3)nc(COc3ccccc3C(=O)O)nc2s1` [Example 4-25, 2-[6-Propyl-4-(3-trifluoromethyl-5,6-dihydro-8H-[1,2,4]triazolo[4,3-a]pyrazin-7-yl)thieno[2,3-d]pyrimidin-2-ylmethoxy]benzoic acid], the Ki in assay [1] was 1900 nM. Moreover, at Human P2Y12 receptor, the IC50 amounted to 353 nM.
The molecule `CCCc1cc2c(N3CCn4c(nnc4C(F)(F)F)C3)nc(COc3cccc(C(=O)O)c3)nc2s1` [Example 4-26, 3-[6-Propyl-4-(3-trifluoromethyl-5,6-dihydro-8H-[1,2,4]triazolo[4,3-a]pyrazin-7-yl)thieno[2,3-d]pyrimidin-2-ylmethoxy]benzoic acid] returned an inhibition constant Ki in assay [1] of 2100 nM. On Human P2Y12 receptor, the IC50 is 160 nM.
For `CCCc1cc2c(N3CCn4c(nnc4C(F)(F)F)C3)nc(-c3nc(CC)no3)nc2s1` [Example 4-27, 7-[2-(3-Ethyl-[1,2,4]oxadiazol-5-yl)-6-propyl-thieno[2,3-d]pyrimidin-4-yl]-3-trifluoromethyl-5,6,7,8-tetrahydro-[1,2,4]triazolo[4,3-a]pyrazine], the Ki in assay [1] is 1500 nM. Besides, the IC50 at Human P2Y12 receptor was found to be 130 nM.
The corresponding values for `CCCc1cc2c(N3CCn4c(nnc4C(F)(F)F)C3)nc(-c3nc(-c4ccccc4)no3)nc2s1` [Example 4-28, 7-[2-(3-Phenyl-[1,2,4]oxadiazol-5-yl)-6-propyl-thieno[2,3-d]pyrimidin-4-yl)-3-trifluoromethyl-5,6,7,8-tetrahydro-[1,2,4]triazolo[4,3-a]pyrazine] are 670 nM and 330 nM.
The like results for `CCCc1cc2c(N3CCn4c(nnc4C(F)(F)F)C3)nc(-c3nc(CCOC)no3)nc2s1` [Example 4-29, 7-{2-[3-(2-Methoxy-ethyl)-[1,2,4]oxadiazol-5-yl]-6-propyl-thieno[2,3-d]pyrimidin-4-yl}-3-trifluoromethyl-5,6,7,8-tetrahydro-[1,2,4]triazolo[4,3-a]pyrazine] were, in that order, 480 nM and 330 nM.
The like results for `CCCc1cc2c(N3CCn4c(nnc4C(F)(F)F)C3)nc(-c3nc(CCO)no3)nc2s1` [Example 4-30, 2-{5-[6-Propyl-4-(3-trifluoromethyl-5,6-dihydro-8H-[1,2,4]triazolo[4,3-a]pyrazin-7-yl)thieno[2,3-d]pyrimidin-2-yl]-[1,2,4]oxadiazol-3-yl}ethanol] were, in that order, 830 nM and 6500 nM.
On to `CCCc1cc2c(N3CCn4c(nnc4C(F)(F)F)C3)nc(-c3nc(CC(OC)OC)no3)nc2s1` [Example 4-31, 7-{2-[3-(2,2-Dimethoxy-ethyl)-[1,2,4]oxadiazol-5-yl]-6-propyl-thieno[2,3-d]pyrimidin-4-yl}-3-trifluoromethyl-5,6,7,8-tetrahydro-[1,2,4]triazolo[4,3-a]pyrazine], for which the Ki in assay [1] is above 4000 nM. On Human P2Y12 receptor, the IC50 worked out at 420 nM.
`CCCc1cc2c(N3CCn4c(nnc4C(F)(F)F)C3)nc(-c3nnc(C)o3)nc2s1` [Example 4-32, 7-[2-(5-Methyl-[1,3,4]oxadiazol-2-yl)-6-propyl-thieno[2,3-d]pyrimidin-4-yl]-3-trifluoromethyl-5,6,7,8-tetrahydro-[1,2,4]triazolo[4,3-a]pyrazine] yielded a Ki in assay [1] of 150 nM. Further, the half-inhibitory concentration (IC50) at Human P2Y12 receptor stood at 230 nM.
The like results for `CCCc1cc2c(N3CCn4c(nnc4C(F)(F)F)C3)nc(-c3nnc(-c4ccccc4)o3)nc2s1` [Example 4-33, 7-[2-(5-Phenyl-[1,3,4]oxadiazol-2-yl)-6-propyl-thieno[2,3-d]pyrimidin-4-yl]-3-trifluoromethyl-5,6,7,8-tetrahydro-[1,2,4]triazolo[4,3-a]pyrazine] were, in that order, 100 nM and 75 nM.
